Experimental data taken from US7365085B2, “Compounds and methods” (SmithKline Beecham Corporation, priority 2002, dated 2008).

Legend:
[1] = target: T1, human LXRβ ligand binding domain (Homo sapiens, UniProt P55055); assay: Ligand Sensing Assay (LiSA) for LXRβ agonist activity (recruitment of SRC1-derived peptide); type: biochemical; conditions: 1 μM; over a background reading of 10000 fluorescence units
T1 construct: made in house; host or cells: E. coli BL21 (DE3), vector pRSETa
T1 sequence (P55055 184-460 limits assumed): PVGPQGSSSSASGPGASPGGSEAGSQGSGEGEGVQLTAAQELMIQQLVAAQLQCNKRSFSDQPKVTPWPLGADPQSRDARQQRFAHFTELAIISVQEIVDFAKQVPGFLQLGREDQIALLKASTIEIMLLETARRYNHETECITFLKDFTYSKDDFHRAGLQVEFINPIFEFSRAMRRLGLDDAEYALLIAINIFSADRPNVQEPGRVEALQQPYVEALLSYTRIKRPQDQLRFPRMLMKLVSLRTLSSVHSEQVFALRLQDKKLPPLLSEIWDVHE
T1 sequence (Q15788 676-700 partner limits assumed): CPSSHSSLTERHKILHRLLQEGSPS
From the text: The term “LXR modulator,” as used herein, means a small molecule that modulates the biological activities of LXRα and/or LXRβ. More specifically, such an LXR modulator either enhances or inhibits the biological activities of LXR. If such a modulator partially or completely enhances the biological activities of LXR, it is a partial or complete LXR agonist, respectively. […] Preferably, the LXR modulator compounds of this invention are LXR agonists. As used herein, the term “LXR agonist” refers to compounds which achieve at least 20% activation of LXR relative to 24(S),25-epoxycholesterol, the appropriate positive control in the HTRF assay described below in Test Method 1. It should be noted that to show activity in the specific Test Methods described herein, the LXR modulator compound must bind to the LXR nuclear receptor and recruit the specific peptide derived from the coactivator protein, SRC1, to the modulator compound-bound LXR complex. […]
Typically 25-50 g of cell paste is resuspended in 250-500 mL TBS, pH 8.0 (25 mM Tris, 150 mM NaCl). […] After washing to baseline absorbance with equilibration buffer, the column is washed with approximately one column volume of TBS pH […] containing 95 mM imidazole. […] Afterwashing to baseline absorbance with the dilution buffer the protein is eluted with a gradient from 50-500 mM NaCl. […]

[2] = target: T2, LXRα ligand binding domain (Homo sapiens, UniProt Q13133); assay: Ligand Sensing Assay for LXRα agonist activity; type: biochemical; conditions: 1 μM; over a background reading of 10000 fluorescence units
T2 construct: His tag; made in house
T2 sequence (Q13133 183-447): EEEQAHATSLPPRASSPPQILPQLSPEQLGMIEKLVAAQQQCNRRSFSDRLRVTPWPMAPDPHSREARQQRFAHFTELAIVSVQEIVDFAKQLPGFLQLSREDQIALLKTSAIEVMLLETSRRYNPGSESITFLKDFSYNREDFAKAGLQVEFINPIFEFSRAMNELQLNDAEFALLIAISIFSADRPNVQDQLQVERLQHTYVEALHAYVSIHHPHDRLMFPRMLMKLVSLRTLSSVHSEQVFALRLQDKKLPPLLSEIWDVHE
T2 sequence (Q15788 676-700 partner): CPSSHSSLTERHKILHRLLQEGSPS
Description: Test Method 2: Ligand Sensing Assay for LXRα Agonist Activity
The assay for LXRα was run according to the procedures of Test Method 1, above using his-tagged LXRα ligand binding domain (amino acids 183-447 of Genbank accession number U22662, with the 14th amino acid corrected to A from R). In this assay 1 μM 24(S),25-epoxycholesterol gave a reading of 20000 fluorescence units over a background reading of 10000 fluorescence units.

C[C@H](CC[C@@H]1OC1(C)C)[C@H]1CC[C@H]2[C@@H]3CC=C4C[C@@H](O)CC[C@]4(C)[C@H]3CC[C@]12C [24(S),25-epoxycholesterol]
reading [1]: 20000 fluorescence units
reading [2]: 20000 fluorescence units
